Assay [1] has as its system adipocytes. Nature of the assay: Adipocyte lipolysis in the biphasic electrical stimulation study, adipocytes from 4 women (Example III). The class given is cell-based, human. Conditions: suprailiac adipocytes of 4 women aged 40-52; non significant level (FIG. 2). As to the method:
It was tested if biphasic electrical stimulation can induce lipolysis in adipocyte. 4 women between 40-52 years of age were used as subject. Adipose tissue was obtained from suprailiac areas through liposuction. It is disclosed that isoproterenol (ISO) increased adipocyte lipolysis by 15% i.e. at a non significant level (FIG. 2). […] Moreover, the 4 mA biphasic stimulation increased basal lipolysis by 1.8 x thus at a lower level than the 6 mA stimulation.

The subject of assay [2] is adipocytes. Put plainly: Adipocyte lipolysis measured by glycerol release from isolated adipocytes (Examples I-II). Conditions: isoproterenol 10^-4 M, 30 minutes. The format is cell-based, human. As to the method: Tissue samples. Adipose tissues were obtained from 11 pre-menopaused women, aged under 45, who were undergoing liposuction or an aesthetic surgery in the supra-iliac region. Adipocyte isolation. The adipose tissues were first placed in Krebs buffer and transported to the laboratory. Fragments of fresh adipose tissue were then incubated in a collagenase type II solution (reconstituted in Krebs buffer, 5 mg of collagenase per gm of tissue; Sigma) for 30 minutes at 37° C. under agitation (100 rpm) in a controlled atmosphere (95% O2, 5% CO2) (Rodbell, 1964). After the incubation period, the cellular suspension was filtered through a 250 μm nylon mesh and separated from the stromal and vascular fraction by flotation. […] Adipocytes were counted using a Neubauer hemacytometer using trypan blue dye. […] Because free fatty acids can be re-esterified Inside the adipocyte while glycerol is not, lipolysis was evaluated by measuring the release of glycerol. Glycerol was indirectly measured by assessing the formation of NADH produced during its enzymatic transformation. NADH was measured using a spectrophotometer (Pharmacia LKB-Novaspec), at a wavelength of 340 nm. Results are expressed as μmol of glycerol released per 10^6 adipocytes per 30 minutes. […] The mean and standard deviation were calculated.

The structures appear in SMILES notation.

Consider `CC(C)NCC(O)c1ccc(O)c(O)c1` (stereo not drawn) [isoproterenol], for which, in the assay on adipocytes [1], the “Increase of adipocyte lipolysis” value is reported as 15%. Moreover, the “Increase of adipocyte lipolysis compared to control values (BASAL)” value in the assay on adipocytes [2] is listed as 2.6 fold. In addition, in the assay with adipocytes [2] (37° C., N=11 individuals, BASAL mean 1.4), the “Mean glycerol released (lipolysis)” value is 3.7 μM of glycerol.

(Values after patent US7933647B2, “Methods of increasing lipolysis” (Transfert Plus, S.E.C., priority 2005, dated 2011).)
